According to patent US9663789B2, “PME-1 as a biomarker to predict and diagnose endometrial and breast cancer and gene silencing of PME-1 to inhibit epithelial to mesenchymal transition” (MEDICAL DIAGNOSTIC LABORATORIES, LLC, priority 2013, dated 2017):

Assays:
Ishikawa cells [1] = test: Foci formation assay, Ishikawa cells; format: cell-based, human; conditions: DMSO set to 100%
Description: This study was completed in Ishikawa endometrial cancer cells.
1,000 cells were plated in a six well tissue culture dish in selection media (to include 5 μg/ml puromycin) (InvivoGen). Cells were allowed to adhere and grow in a 5% CO2, 37° C. incubator for 10 to 14 days. […] Cells were stained with 1% crystal violet (Sigma Aldrich) for five minutes and rinsed with PBS. Colonies were counted and data is presented as the percentage of change compared to the control. All Experiments were repeated at least three times.

Ishikawa cells [2] = test: Trans-well migration assay; format: cell-based, human; conditions: 24 hr, collagen, 30% FBS bottom chamber
Description: We next asked if PME-1 inhibition led to decreased cell migration by completing a trans-well migration assay. Cells were synchronized for 24 hours in media containing 0% FBS. For this experiment, DMSO was again used as the vehicle control and Ishikawa cells were treated with DMSO (control) or 50 nM ABL-127 or 20 μM AMZ-30 for 24 hr and were allowed to migrate through a collagen-coated well towards the bottom chamber, containing media with 30% FBS.
The assay was completed with ECC-1 endometrial carcinoma cell lines following kit instructions Cultrex 96 Well Collagen IV Cell Invasion Assay (cat #3458-096-K). Briefly, cells were serum starved for 24 hours prior to experimentation, then counted and put into the top chamber of a collagen type IV coated Transwell membrane at a concentration of 1×10^6 cells/well in 0% FBS. The bottom chamber contained 30% FBS. Cells were allowed to invade at 37° C. humid chamber incubator for 24 hours. Cells that invaded were analyzed using the kit provided Calcein-AM and fluorescence was read using FluoStar Galaxy.

RL95-2 cells = test: Colony forming / invasive growth assay in Matrigel; format: cell-based, human; conditions: RL95-2, 10 ng/ml TGF-β, 10 days
Description: To determine if PME-1 contributes to the more invasive and metastatic phenotypes, we performed a colony forming assay in matrigel.
The 3D On Top Matrigel Assay was completed in 24 well dishes. Briefly, the bottoms of 24 well dishes were coated with 50 μl BD Matrigel Basement Matrix Phenol Red Free (BD Biosciences cat. #356237) and allowed to solidify at 37° C. 10^5 cells were suspended in 250 μl chilled medium containing either 10 ng/ml of TGF-b or vehicle and allowed to settle at 37° C. for 30 minutes. Chilled medium containing 10% of Matrigel was added by pipetting gently down the sidewall of the well and incubated at 37° C. for ten days changing top medium every second day. Colony counts were performed on the tenth day; averages were taken from three fields of view using a 10× objective. Experiment was repeated three times.

PME-1 [3] = test: Quantitative real-time PCR of PME-1 expression after TGF-β treatment; format: cell-based, human; conditions: RL95-2 control cells and +PME-1 cells, TGF-β 24 hours
Description: In this study, we transfected RL95-2 cells to express empty vector (Control), over-expressing PME-1 (+PME-1) or expressing shRNA against PME-1 (−PME-1 SEQ ID NO: 2) followed by serum starvation for 24 hours. Afterwards, either vehicle or TGF-β treatment was performed at the end of the 24 hours. TGF-β was used to induce cells to initiate the EMT program. Gene expression analysis was conducted using quantitative real-time PCR.
Total RNA was extracted with Qiagen RNAEasy kit from RL95-2 cells. cDNA was synthesized using 500 ng-1 μg of RNA and SuperScript VILO c-DNA mix (Life Technologies). Taqman probes and PCR-mix were purchased from Life Technologies. All samples were run in triplicates. Results are representative of three independent experiments in which genes of interest were normalized to the house-keeping gene, 18S or GAPDH, where fold-change was calculated using the ddCt method.

PME-1 [4] = test: Western blot of PME-1 protein in RL95-2 cells; format: cell-based, human; conditions: GAPDH loading control
Description: We prepared RL95-2 cell lines expressing empty vector (control), over-expressing PME-1 (+PME-1), or expressing shRNA against PPME1, the gene that codes for PME-1 protein (−PME-1). Using these cells, we confirmed the appropriate level of PME-1 via real-time RT-PCR (data not shown) and Western blot analysis (FIG. 8). GAPDH was used as a loading control.
We also prepared two different shRNAs targeted against PME-1.
15 μg of protein was used for western analysis. PME-1 antibody (Santa Cruz) and COXIV (Cell Signaling Technologies) were used for detection of proteins and the blots were developed using chemiluminescence (Pierce ECL Western Blotting Substrate—Thermo Scientific) on the GE ImageQuant LAS 4000. For analysis of Akt, ERK, and β-catenin signaling in tissue culture, western analyses were completed as follows. RL95-2 cells stably infected with lentivirus expressing constructs were selected with puromycin (Invivogen). The cells were incubated with either 50 μM Akt inhibitor (LY 294002, Cell Signaling Technologies) or 40 μM ERK inhibitor (V0126, Cell Signaling Technologies) for 1-2 hours at 37° C. 1.5× Laemelli buffer (0.5 M Tris pH6.8, […], 10% sodium dodecyl sulfate, 100 mM EDTA) was used to prepare cell lysates. 20 μg of protein was used for western analysis. […]

recombinant PME-1_des3 = recombinant PME-1_des3 (Homo sapiens, UniProt Q9Y570); test: Thermal melt (thermal shift) assay; format: binding; conditions: 50 μM ABL-127; PME-1+DMSO vehicle ˜55° C.
Description: There are several commercially available covalent PME-1 inhibitors that we have analyzed as potential endometrial cancer therapeutics. To confirm that the inhibitors directly bind PME-1, we completed a thermal melt assay. One micromole (1 μmole) of recombinant PME-1_des3, of which the last 3 amino acids are deleted, were pre-incubated with SYBR orange in the presence of 50 μM ABL-127 (a potent covalent PME-1 inhibitor, squares) or 0.05% DMSO (vehicle, circles) for 10 minutes (FIG. 25) at 37° C. We then performed a thermal gradient, increasing the temperature by 2° C. each minute from 37° C. to 95° C. and fluorescent signal was detected at 492-601 nm on a thermal cycler. The increase in Tm from ˜55° C. (PME-1+DMSO, circles) to ˜65° C. (PME-1+ABL-127, squares) indicated thermal stabilization of the PME-1 protein via direct binding of the ABL-127 inhibitor (FIG. 25).
The assay was completed by first conducting a 10 min pre-incubation of one μmole of recombinant PME-1des3 with 50 μM ABL127 (Sigma) or vehicle (0.05% DMSO) in the presence of SYBR Orange (1:1,000, v/v, Sigma) at 37° C. in 1×NEB buffer 2 (50 mM NaCl, 10 mM Tris-HCl, 10 mM MgCl2, 1 mM DTT, pH 7.9 at 25° C.), a thermal gradient was performed increasing temperature by 2° C. per minute increments from 37° to 95° C. and fluorescence (492 nm-610 nm) was acquired on a thermal cycler Mx3005P (Stratagene).

recombinant PME-1_des3, sequence (Q9Y570 1-383): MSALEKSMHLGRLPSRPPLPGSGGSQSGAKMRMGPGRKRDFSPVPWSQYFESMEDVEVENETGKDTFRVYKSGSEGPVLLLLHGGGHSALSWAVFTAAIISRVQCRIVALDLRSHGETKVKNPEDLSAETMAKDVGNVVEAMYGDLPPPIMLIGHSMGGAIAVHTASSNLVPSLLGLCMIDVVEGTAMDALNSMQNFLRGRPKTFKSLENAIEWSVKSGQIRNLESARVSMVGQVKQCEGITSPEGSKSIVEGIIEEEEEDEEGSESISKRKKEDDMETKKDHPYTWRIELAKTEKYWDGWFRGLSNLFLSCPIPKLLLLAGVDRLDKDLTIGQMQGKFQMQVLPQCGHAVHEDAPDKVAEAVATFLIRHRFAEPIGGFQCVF

N#C/C(=C\c1cccn1S(=O)(=O)c1cccc([N+](=O)[O-])c1)S(=O)(=O)c1ccc(F)cc1 [AMZ-30, (E)-2-(4-Fluorophenylsulfonyl)-3-(1-(3-nitrophenylsulfonyl)-1H-pyrrol-2-yl)-acrylonitrile]
decrease in the amount of foci formed (Ishikawa cells [1]; 25 μM every 2-3 days for 10 days): ~50%
percentage of cells capable of migrating (Ishikawa cells [2]; 20 μM): dramatic decrease in the percentage of cells that are capable of migrating

TGF-β
colony number in Matrigel (RL95-2 cells): overall decrease in colony number
increase in PME-1 expression (PME-1 [3]): ~2 fold

shPPME1 no. 1: shRNA against PPME1, target sequence SEQ ID NO: 1 GTACAGCTATGGATGCACTTA, bp 554-574; full hairpin SEQ ID NO: 7 (CCGGGTACAGCTATGGATGCACTTACTCGAGTAAGTGCATCCATAGCTGTACTTTTT; listed as Homo sapiens)
PME-1 levels by Western blot analysis (PME-1 [4]): significantly decreased PME-1 levels

COC(=O)N1C(=O)C(c2ccccc2)(C2CCCC2)N1C(=O)OC (stereo in doubt) [ABL-127, (3R)-Dimethyl 3-cyclopentyl-4-oxo-3-phenyl-1,2-diazetidine-1,2,-dicarboxylate]
Tm of PME-1 with inhibitor (recombinant PME-1_des3): ~65 °C
decrease in the amount of foci formed (Ishikawa cells [1]; 50 nM every 2-3 days for 10 days): ~50%
percentage of cells capable of migrating (Ishikawa cells [2]; 50 nM): dramatic decrease in the percentage of cells that are capable of migrating
